Reference: US5834461A, “Tricyclic benzazepine vasopressin antagonists” (American Cyanamid Company, priority 1997, dated 1998)
pIC50: −log10 of the molar value.

How the values were obtained:
[1] = tested on: vasopressin V2; experiment: Vasopressin V2 Antagonist Activity in Conscious Hydrated Rats (diuretic effect); assay type: in vivo, normal Sprague-Dawley rats; conditions: AVP 0.4 μg/kg i.p.
Outline: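 Conscious rats were dosed orally at 0.1–100 mg/kg, and AVP 0.4 μg/kg i.p. in peanut oil followed 1 h later. Urine volume, osmolality and Na/K/Cl were compared against AVP-treated controls, with non-AVP rats as water-loading controls.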

[2] = tested on: vasopressin V1; experiment: Vasopressin V1 Antagonist Activity in Conscious Rats (vasopressin vasopressor response); assay type: in vivo, rat (spontaneously hypertensive rats)
Outline: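 Conscious rats had the ventral caudal tail artery cannulated into the lower abdominal aorta under local procaine anesthesia, plus a caudal vein cannula for intravenous dosing. Pulsatile blood pressure was recorded via a Statham P23Db transducer. Vasopressor responses to vasopressin injections were measured before and after compound dosing, with percent antagonism calculated relative to the pre-drug response taken as 100%.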

[3] = target: T1, oxytocin receptors (rat uterus membranes) (Rattus norvegicus, UniProt P70536); experiment: Oxytocin Receptor Binding; parameters: species or system female Sprague-Dawley rats
T1 construct: The resulting pellet containing the oxytocin receptors is resuspended; from tissue; host or cells: uterus membranes of DES-treated female Sprague-Dawley rats
T1 sequence (P70536 1-388): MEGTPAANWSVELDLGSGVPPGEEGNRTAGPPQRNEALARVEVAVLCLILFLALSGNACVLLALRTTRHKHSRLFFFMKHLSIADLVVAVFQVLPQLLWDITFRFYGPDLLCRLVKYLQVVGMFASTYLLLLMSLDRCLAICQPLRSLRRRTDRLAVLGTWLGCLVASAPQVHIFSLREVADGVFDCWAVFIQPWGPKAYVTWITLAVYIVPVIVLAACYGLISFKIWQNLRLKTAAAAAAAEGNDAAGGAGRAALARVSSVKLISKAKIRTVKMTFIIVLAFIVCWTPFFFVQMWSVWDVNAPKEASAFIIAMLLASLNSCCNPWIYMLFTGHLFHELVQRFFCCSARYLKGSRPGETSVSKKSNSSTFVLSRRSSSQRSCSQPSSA
Outline: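 Uterine membranes from DES-primed female Sprague-Dawley rats (0.3 mg/kg i.m., 18 h) were incubated with 1.0 nM [3H]oxytocin in 50 mM Tris.HCl pH 7.4, 5 mM MgCl2 plus protease inhibitors, 60 min at 22 °C. Bound ligand was separated by filtration; nonspecific binding was defined with 1.0 uM oxytocin, and IC50 was taken from displacement curves.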

Row | Compound | Osmolality ([1]; 30 mg/kg orally) | Urine Volume ([1]; 30 mg/kg orally) | MAX % Inhibition ([2]; 10 mg/kg i.v.) | Time of max % inhibition ([2]; 10 mg/kg i.v.) | inhibition at 10 µM [3] | pIC50 ([3]; first part of Table V) | Osmolality ([1]; 10 mg/kg orally) | Urine Volume ([1]; 10 mg/kg orally) | MAX % Inhibition ([2]; 30 mg/kg i.v.) | Time of max % inhibition ([2]; 30 mg/kg i.v.)
1 | O=C(Nc1ccc(C(=O)N2Cc3ccccc3Cc3ccccc32)cc1)C1CC=CCC1 (stereo not shown) [Example 255, N-[4-[(6,11-Dihydro-5H-dibenz[b,e]azepin-5-yl)-carbonyl]phenyl]-3-cyclohexene-1-carboxamide] | 1456 mOsm/kg | 2.3 ml/4 hrs. | 65% | 60 min | 99% | 6.34 |  |  |  | 
2 | Cc1cc(C(=O)N2Cc3ccccc3Cc3ccccc32)cc(C)c1NC(=O)c1ccc(Cl)cc1Cl [Example 259, N-[4-[(6,11-Dihydro-5H-dibenz[b,e]azepin-5-yl)-carbonyl]-2,6-dimethylphenyl]-2 4-dichlorobenzamide] |  |  |  |  | 7% |  | 1080 mOsm/kg | 6 ml/4 hrs. | 29% | 90 min
3 | O=C(Nc1ccc(C(=O)N2Cc3ccccc3Sc3ccccc32)cc1)c1ccccc1Cl [Example 448, N-[4-[(Dibenz[b,f][1,4]thiazepin-10(11H)yl)-carbonyl]phenyl]-2-chlorobenzamide] | 1084 mOsm/kg | 4.8 ml/4 hrs. |  |  | 39% |  |  |  | 60% | 90 min
